# Data: patent publication US10988523B2, “Modified lipidated Relaxin B chain peptides and their therapeutic use” (Sanofi, priority 2018, dated 2021)
# *1 amine or outer side, *2 acyl side, *3 side chain or, on linkers, in order; H or OH if unused. Where a SMILES comes first, the peptide text is derived from it. Side-chain parts run from the residue outwards. [ ]: non-standard residue; d: D form. The star is where a group is joined. X12 = CCCCCCCCCCCCCCCC(=O)N[C@@H](CCC(=O)N[C@@H](CCC(=O)N[C@@H](CCC(=O)NCCCC[C@H](NC(=O)COCC(=O)NCCCOCCOCCOCCCNC(=O)COCC(=O)NCCCOCCOCCOCCCN*)C(N)=O)C(=O)O)C(=O)O)C(=O)O; PEG12 = NCCOCCOCCOCCOCCOCCOCCOCCOCCOCCOCCOCCOCCC(=O)O; γGlu = O=C(O)[C@H](CCC(=O)[*:2])N[*:1]; Pentadecanoyl = CCCCCCCCCCCCCCC(=O)*; Stearoyl = CCCCCCCCCCCCCCCCCC(=O)*; Palmitoyl = CCCCCCCCCCCCCCCC(=O)*; αMeK = C[C@](N)(CCCCN)C(=O)O; Nle = CCCC[C@H](N)C(=O)O; AEEA = NCCOCCOCC(=O)O; Aib = CC(C)(N)C(=O)O
# Biological target: T1, RXFP1 (Homo sapiens, UniProt Q9HBX9)
# T1 construct: OVCAR5 cells expressing endogenous RXFP1; endogenous in cells; host or cells: OVCAR5 cells
# T1 sequence (Q9HBX9 1-757): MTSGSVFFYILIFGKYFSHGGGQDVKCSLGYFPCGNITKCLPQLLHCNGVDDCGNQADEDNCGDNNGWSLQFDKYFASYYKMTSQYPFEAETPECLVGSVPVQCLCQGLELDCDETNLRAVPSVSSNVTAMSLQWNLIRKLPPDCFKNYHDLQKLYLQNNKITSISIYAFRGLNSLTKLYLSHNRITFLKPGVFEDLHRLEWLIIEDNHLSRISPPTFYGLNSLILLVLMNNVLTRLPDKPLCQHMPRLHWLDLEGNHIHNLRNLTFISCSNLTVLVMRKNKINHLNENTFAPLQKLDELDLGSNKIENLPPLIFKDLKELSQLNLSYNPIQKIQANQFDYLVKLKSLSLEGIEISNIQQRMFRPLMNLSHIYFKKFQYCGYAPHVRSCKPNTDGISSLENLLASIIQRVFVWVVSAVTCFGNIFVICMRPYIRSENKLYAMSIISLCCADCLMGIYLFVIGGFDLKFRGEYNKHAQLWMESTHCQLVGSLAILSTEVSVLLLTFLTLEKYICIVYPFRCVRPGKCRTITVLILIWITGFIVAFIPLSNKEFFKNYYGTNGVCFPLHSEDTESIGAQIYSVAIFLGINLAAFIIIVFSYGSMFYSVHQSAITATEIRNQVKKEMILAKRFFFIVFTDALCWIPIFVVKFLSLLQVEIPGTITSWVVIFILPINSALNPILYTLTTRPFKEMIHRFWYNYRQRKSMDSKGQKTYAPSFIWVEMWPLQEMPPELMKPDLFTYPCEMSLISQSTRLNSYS
# Assay: OVCAR5 cAMP assay (HTRF), RXFP1 agonist activity
# Type: cell-based
# Conditions: for EC50: OVCAR5 cells, cAMP HTRF, read-out: EC50 (nM), OVCAR 5 cells (cAMP); for Emax: OVCAR-5, maximal cAMP relative to H2-relaxin maximum (100%), read-out: EMax, OVCAR 5 cells (cAMP)
# Summary of the method: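 OVCAR5 cells (endogenous RXFP1) pretreated 40 min at 37° C with 1 mM IBMX, then exposed to peptides in serum-free medium for 30 min at 37° C. Lysate cAMP read by HTRF; EC50 from variable-slope sigmoidal fit; Emax as % of H2-relaxin maximal cAMP in same run.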
EC50,Emax,SMILES
0.19 nM,99%,CCCCCCCCCCCCCCC(=O)N[C@@H](CCC(=O)N[C@@H](CCC(=O)N[C@@H](CCC(=O)N[C@@H](CCC(=O)NCCCC[C@H](NC(=O)COCCOCCNC(=O)COCCOCCNC(=O)COCCOCCNC(=O)COCCOCCNC(=O)[C@H](CCCCNC(C)=O)NC(=O)[C@H](C)NC(=O)[C@H](CCCNC(=N)N)NC(=O)[C@](C)(CCCCN)NC(=O)[C@H](CO)NC(=O)[C@H](Cc1ccccc1)NC(=O)[C@@H](NC(=O)[C@H](CO)NC(=O)[C@H](CCC(N)=O)NC(=O)CNC(=O)[C@H](CCC(=O)O)NC(=O)C(C)(C)NC(=O)C(C)(C)NC(=O)[C@@H](NC(=O)[C@H](CCCCNC(C)=O)NC(=O)[C@H](C)NC(=O)[C@H](CCCNC(=N)N)NC(=O)[C@@H](NC(=O)[C@H](CCCCN)NC(=O)[C@H](CCC(=O)O)NC(=O)[C@H](CCCNC(=N)N)NC(=O)CNC(=O)[C@H](CCC(=O)O)NC(=O)[C@H](CC(C)C)NC(C)=O)C(C)C)[C@@H](C)CC)[C@@H](C)O)C(N)=O)C(=O)O)C(=O)O)C(=O)O)C(=O)O [compound 182] (Ac-LEGREKVRAK(Ac)I[Aib][Aib]EGQSTFS[αMeK]RAK(Ac)[AEEA][AEEA][AEEA][AEEA]K([γGlu-γGlu-γGlu-γGlu-Pentadecanoyl])-NH2)
1.04 nM,96%,CCCCCCCCCCCCCCCCCC(=O)N[C@@H](CCC(=O)N[C@@H](CCC(=O)N[C@@H](CCC(=O)NCCCC[C@H](NC(=O)CCOCCOCCOCCOCCOCCOCCOCCOCCOCCOCCOCCOCCNC(=O)[C@H](CCCCN)NC(=O)[C@H](CCCCN)NC(=O)[C@H](CCCNC(=N)N)NC(=O)C(C)(C)NC(=O)[C@H](CO)NC(=O)[C@H](Cc1c[nH]c2ccccc12)NC(=O)[C@@H](NC(=O)[C@H](CO)NC(=O)[C@H](CCCC)NC(=O)CNC(=O)[C@H](CCC(=O)O)NC(=O)C(C)(C)NC(=O)C(C)(C)NC(=O)[C@@H](NC(=O)[C@H](CCCCNC(C)=O)NC(=O)[C@H](C)NC(=O)[C@H](CCCNC(=N)N)NC(=O)[C@@H](NC(=O)[C@H](CCCCN)NC(=O)[C@H](CCC(=O)O)NC(=O)[C@H](CCCNC(=N)N)NC(=O)CNC(=O)[C@H](CCC(=O)O)NC(=O)[C@H](CC(C)C)NC(C)=O)C(C)C)[C@@H](C)CC)[C@@H](C)O)C(N)=O)C(=O)O)C(=O)O)C(=O)O [compound 32] (Ac-LEGREKVRAK(Ac)I[Aib][Aib]EG[Nle]STWS[Aib]RKK[PEG12]K([γGlu-γGlu-γGlu-Stearoyl])-NH2)
–,91%,CCCCCCCCCCCCCCCC(=O)N[C@@H](CCC(=O)N[C@@H](CCC(=O)N[C@@H](CCC(=O)NCCCC[C@H](NC(=O)COCC(=O)NCCCOCCOCCOCCCNC(=O)COCC(=O)NCCCOCCOCCOCCCNC(=O)[C@H](CCCCNC(C)=O)NC(=O)[C@H](CCCCN)NC(=O)[C@H](CCCNC(=N)N)NC(=O)C(C)(C)NC(=O)[C@H](CO)NC(=O)[C@H](Cc1c[nH]c2ccccc12)NC(=O)[C@@H](NC(=O)[C@H](CO)NC(=O)[C@H](CCC(N)=O)NC(=O)CNC(=O)[C@H](CCC(=O)O)NC(=O)C(C)(C)NC(=O)C(C)(C)NC(=O)[C@@H](NC(=O)[C@H](CCC(N)=O)NC(=O)[C@H](C)NC(=O)[C@H](CCCNC(=N)N)NC(=O)[C@@H](NC(=O)[C@H](CCCCN)NC(=O)[C@H](CCC(=O)O)NC(=O)[C@H](CCCNC(=N)N)NC(=O)CNC(=O)[C@H](CCC(=O)O)NC(=O)[C@H](CC(C)C)NC(C)=O)C(C)C)[C@@H](C)CC)[C@@H](C)O)C(N)=O)C(=O)O)C(=O)O)C(=O)O [compound 177] (Ac-LEGREKVRAQI[Aib][Aib]EGQSTWS[Aib]RKK(Ac)-X12)
–,78%,CCCCCCCCCCCCCCCC(=O)N[C@@H](CCC(=O)N[C@@H](CCC(=O)N[C@@H](CCC(=O)NCCCC[C@H](NC(=O)CCOCCOCCOCCOCCOCCOCCOCCOCCOCCOCCOCCOCCNC(=O)[C@H](CCCCNC(C)=O)NC(=O)[C@H](CCCCN)NC(=O)[C@H](CCCNC(=N)N)NC(=O)C(C)(C)NC(=O)[C@H](CO)NC(=O)[C@H](Cc1c[nH]c2ccccc12)NC(=O)[C@@H](NC(=O)[C@H](CO)NC(=O)[C@H](CCCC)NC(=O)CNC(=O)[C@H](CCC(=O)O)NC(=O)C(C)(C)NC(=O)C(C)(C)NC(=O)[C@@H](NC(=O)[C@H](CCC(N)=O)NC(=O)C(C)(C)NC(=O)[C@H](CCCNC(=N)N)NC(=O)[C@@H](NC(=O)[C@H](CCCCN)NC(=O)[C@H](CCC(=O)O)NC(=O)[C@H](CCCNC(=N)N)NC(=O)CNC(=O)[C@H](CCC(=O)O)NC(=O)[C@H](CC(C)C)NC(C)=O)C(C)C)[C@@H](C)CC)[C@@H](C)O)C(N)=O)C(=O)O)C(=O)O)C(=O)O [compound 28] (Ac-LEGREKVR[Aib]QI[Aib][Aib]EG[Nle]STWS[Aib]RKK(Ac)[PEG12]K([γGlu-γGlu-γGlu-Palmitoyl])-NH2)
0.01 nM,87%,CCCCCCCCCCCCCCCCCC(=O)N[C@@H](CCC(=O)NCCOCCOCC(=O)N[C@@H](CCC(=O)N[C@@H](CCC(=O)NCCOCCOCC(=O)NCCOCCOCC(=O)NCCCC[C@H](NC(=O)[C@H](CCCCN)NC(=O)[C@H](CCCCN)NC(=O)[C@H](CCCNC(=N)N)NC(=O)C(C)(C)NC(=O)[C@H](CO)NC(=O)[C@H](Cc1c[nH]c2ccccc12)NC(=O)[C@@H](NC(=O)[C@H](CO)NC(=O)[C@H](CCCC)NC(=O)CNC(=O)[C@H](CCC(=O)O)NC(=O)C(C)(C)NC(=O)C(C)(C)NC(=O)[C@@H](NC(=O)[C@H](CCC(N)=O)NC(=O)[C@H](C)NC(=O)[C@H](CCCNC(=N)N)NC(=O)[C@@H](NC(=O)[C@H](CCCCN)NC(=O)[C@H](CCC(=O)O)NC(=O)[C@H](CCCNC(=N)N)NC(=O)CNC(=O)[C@H](CCC(=O)O)NC(=O)[C@H](CC(C)C)NC(C)=O)C(C)C)[C@@H](C)CC)[C@@H](C)O)C(N)=O)C(=O)O)C(=O)O)C(=O)O [compound 99] (Ac-LEGREKVRAQI[Aib][Aib]EG[Nle]STWS[Aib]RKKK([AEEA-AEEA-γGlu-γGlu-AEEA-γGlu-Stearoyl])-NH2)
–,92%,CCCCCCCCCCCCCCCCCC(=O)N[C@@H](CCC(=O)N[C@@H](CCC(=O)N[C@@H](CCC(=O)NCCOCCOCC(=O)NCCOCCOCC(=O)NCCOCCOCC(=O)NCCCC[C@H](NC(=O)[C@H](CCCCN)NC(=O)[C@H](CCCNC(=N)N)NC(=O)C(C)(C)NC(=O)[C@H](CO)NC(=O)[C@H](Cc1c[nH]c2ccccc12)NC(=O)[C@@H](NC(=O)[C@H](CO)NC(=O)[C@H](CCCC)NC(=O)CNC(=O)[C@H](CCC(=O)O)NC(=O)C(C)(C)NC(=O)C(C)(C)NC(=O)[C@@H](NC(=O)[C@H](CCCCNC(C)=O)NC(=O)[C@H](C)NC(=O)[C@H](CCCNC(=N)N)NC(=O)[C@@H](NC(=O)[C@H](CCCCN)NC(=O)[C@H](CCC(=O)O)NC(=O)[C@H](CCCNC(=N)N)NC(=O)CNC(=O)[C@H](CCC(=O)O)NC(=O)[C@H](CC(C)C)NC(C)=O)C(C)C)[C@@H](C)CC)[C@@H](C)O)C(N)=O)C(=O)O)C(=O)O)C(=O)O [compound 83] (Ac-LEGREKVRAK(Ac)I[Aib][Aib]EG[Nle]STWS[Aib]RKK([AEEA-AEEA-AEEA-γGlu-γGlu-γGlu-Stearoyl])-NH2)
–,94%,CCCCCCCCCCCCCCCCCC(=O)N[C@@H](CCC(=O)N[C@@H](CCC(=O)N[C@@H](CCC(=O)NCCOCCOCC(=O)NCCOCCOCC(=O)NCCCC[C@H](NC(=O)[C@H](CCCCN)NC(=O)[C@H](CCCCN)NC(=O)[C@H](CCCNC(=N)N)NC(=O)C(C)(C)NC(=O)[C@H](CO)NC(=O)[C@H](Cc1c[nH]c2ccccc12)NC(=O)[C@@H](NC(=O)[C@H](CO)NC(=O)[C@H](CCC(=O)O)NC(=O)CNC(=O)[C@H](CCC(=O)O)NC(=O)C(C)(C)NC(=O)C(C)(C)NC(=O)[C@@H](NC(=O)[C@H](CCC(N)=O)NC(=O)[C@H](C)NC(=O)[C@H](CCCNC(=N)N)NC(=O)[C@@H](NC(=O)[C@H](CCCCN)NC(=O)[C@H](CCC(=O)O)NC(=O)[C@H](CCCNC(=N)N)NC(=O)CNC(=O)[C@H](CCC(=O)O)NC(=O)[C@H](CC(C)C)NC(C)=O)C(C)C)[C@@H](C)CC)[C@@H](C)O)C(N)=O)C(=O)O)C(=O)O)C(=O)O [compound 68] (Ac-LEGREKVRAQI[Aib][Aib]EGESTWS[Aib]RKKK([AEEA-AEEA-γGlu-γGlu-γGlu-Stearoyl])-NH2)
–,81%,CCCCCCCCCCCCCCCC(=O)N[C@@H](CCC(=O)N[C@@H](CCC(=O)N[C@@H](CCC(=O)NCCOCCOCC(=O)NCCOCCOCC(=O)NCCCC[C@H](NC(=O)COCCOCCNC(=O)[C@H](CCCCN)NC(=O)[C@H](CCCNC(=N)N)NC(=O)C(C)(C)NC(=O)[C@H](CO)NC(=O)[C@H](Cc1c[nH]c2ccccc12)NC(=O)[C@@H](NC(=O)[C@H](CO)NC(=O)[C@H](CCCC)NC(=O)CNC(=O)[C@H](CCC(=O)O)NC(=O)C(C)(C)NC(=O)C(C)(C)NC(=O)[C@@H](NC(=O)[C@H](CCC(N)=O)NC(=O)[C@H](C)NC(=O)[C@H](CCCNC(=N)N)NC(=O)[C@@H](NC(=O)[C@H](CCCCN)NC(=O)[C@H](CCC(=O)O)NC(=O)[C@H](CCCNC(=N)N)NC(=O)CNC(=O)[C@H](CCC(=O)O)NC(=O)[C@H](CC(C)C)NC(C)=O)C(C)C)[C@@H](C)CC)[C@@H](C)O)C(N)=O)C(=O)O)C(=O)O)C(=O)O [compound 13] (Ac-LEGREKVRAQI[Aib][Aib]EG[Nle]STWS[Aib]RK[AEEA]K([AEEA-AEEA-γGlu-γGlu-γGlu-Palmitoyl])-NH2)
